Consider one compound from ChEMBL document CHEMBL2434931, “Synthesis and antitumor activities of novel thiourea α-aminophosphonates from dehydroabietic acid” (Eur J Med Chem, 2013).

Each structure is given as a SMILES string. Active and inactive are the calls of the source. The rule behind the calls is not given here.

Data set [1] concerns A549. Nature of the data set: Induction of apoptosis in human A549 cells after 12 hrs by Annexin V-propidium iodide staining-based FACS flow cytometric analysis. Format: functional, cell-based.
The test system of data set [2] is A549. Nature of the data set: Induction of apoptosis in human A549 cells assessed as cell budding at 15 uM after 12 to 24 hrs by AO/EB staining-based fluorescence microscopic analysis. Type of data set: functional.
In data set [3] the test system is A549. Nature of the data set: Cytotoxicity against human A549 cells assessed as necrotic cells at 15 uM after 12 to 24 hrs by AO/EB staining-based fluorescence microscopic analysis. Type of data set: cell-based. Particulars: a549, 15 µM.
The subject of data set [4] is A549. Nature of the data set: Induction of apoptosis in human A549 cells assessed as pycnosis at 15 uM after 12 to 24 hrs by AO/EB staining-based fluorescence microscopic analysis. Format: functional, cell-based.
Data set [5] relates to A549. Nature of the data set: Induction of apoptosis in human A549 cells assessed as decrease in mitochondrial membrane potential at 15 uM after 12 to 24 hrs by JC-1 staining-based fluorescence microscopic analysis. Type of data set: functional, cell-based.
Data set [6] concerns A549. Nature of the data set: Induction of apoptosis in human A549 cells assessed as necrotic/late apoptotic cells at 20 uM after 12 hrs by Annexin V-propidium iodide staining-based FACS flow cytometric analysis (reference value: 0.4%). Type of data set: functional. A general note: Flow cytometry measures light scatter and fluorescence of single cells or particles in a stream.

Data set [7] relates to A549. Nature of the data set: Induction of apoptosis in human A549 cells assessed as DNA ladder formation at 10 to 30 uM by agarose gel electrophoresis. Type of data set: functional, cell-based.
The test system of the next data set is SK-OV-3. Nature of the data set: Cytotoxicity against human SKOV3 cells after 3 days by MTT assay. Format: functional, cell-based. As to conditions: SK-OV-3, 72 h.
In data set [8] the test system is A549. Nature of the data set: Induction of apoptosis in human A549 cells assessed as necrotic/late apoptotic cells at 25 uM after 12 hrs by Annexin V-propidium iodide staining-based FACS flow cytometric analysis (reference value: 0.4%). Format: functional.
Data set [9] has as its system A549. Nature of the data set: Cytotoxicity against human A549 cells after 3 days by MTT assay. Type of data set: functional, cell-based. Particulars: A549, 72 h. (In general: Tetrazolium dyes change colour on reduction, which living cells bring about.)
Another data set deals with NCI-H460. Nature of the data set: Cytotoxicity against human NCI-H460 cells after 3 days by MTT assay. Format: functional, cell-based. As to conditions: NCI-H460, 72 h.
Data set [10] has as its system A549. Nature of the data set: Induction of apoptosis in human A549 cells assessed as DNA fragmentation at 15 uM after 12 to 24 hrs by TUNEL assay. Format: functional, cell-based.
For data set [11], the system named is A549. Nature of the data set: Induction of apoptosis in human A549 cells assessed as membrane blebbing at 15 uM after 12 to 24 hrs by AO/EB staining-based fluorescence microscopic analysis. Type of data set: functional, cell-based.
Data set [12] deals with A549. Nature of the data set: Induction of apoptosis in human A549 cells assessed as early apoptotic cells at 20 uM after 12 hrs by Annexin V-propidium iodide staining-based FACS flow cytometric analysis (reference value: 0.2%). Type of data set: functional.
Data set [13] concerns A549. Nature of the data set: Induction of apoptosis in human A549 cells at 15 uM after 12 to 24 hrs by Hoechst 33258 staining-based fluorescence microscopic analysis. Type of data set: functional, cell-based.
Another data set deals with HepG2. Nature of the data set: Cytotoxicity against human HepG2 cells after 3 days by MTT assay. As to conditions: HepG2, 72 h. Type of data set: functional, cell-based.
For data set [14], the system named is A549. Nature of the data set: Induction of apoptosis in human A549 cells assessed as early apoptotic cells at 25 uM after 12 hrs by Annexin V-propidium iodide staining-based FACS flow cytometric analysis (reference value: 0.2%). Format: functional.

For `CCOP(=O)(OCC)C(NC(=S)NC(=O)[C@]1(C)CCC[C@]2(C)c3ccc(C(C)C)cc3/C(=N\O)C[C@@H]12)c1ccc(F)cc1` (some centres not stated), the Activity entry in the data set with A549 [1] was “Dose-dependent effect”; in the data set on A549 [3], “Non-toxic”; in the data set with A549 [6], 5.3%; in the data set on A549 [8], 17.7%; in the data set with A549 [12], 14.4%; with A549 [14] it was 34%. Besides, the outcome in the data set with A549 [2], with A549 [4], in the data set with A549 [5], in the data set on A549 [7], in the data set with A549 [10] and with A549 [11] was Active. Besides, the result in the data set on A549 [13] was Active. The IC50 (usually the concentration that inhibits the measured activity by half) with SK-OV-3 amounted to 11.4 µM; in the data set on A549 [9], 7 µM; in the data set on NCI-H460, 17.7 µM; with HepG2 it was 13.1 µM.
